SMILES strings stand for the structures.

The target of assay [1] is MAPK8 (Homo sapiens, UniProt P45983). In words: Kinase selectivity screen MAPK8. The conditions noted are these: read-out: % inhibition of MAPK8.
Assay [2] addresses AKT1 (Homo sapiens, UniProt P31749). As to the kind of experiment: Kinase selectivity screen AKT1. The conditions noted are these: read-out: % inhibition of AKT1.
In assay [3] the target is RET (Homo sapiens, UniProt P07949). In words: Kinase selectivity screen RET. The conditions noted are these: read-out: % inhibition of RET.
Assay [4] deals with PRKAA2 (Homo sapiens, UniProt P54646). In words: Kinase selectivity screen PRKAA2. The conditions noted are these: read-out: % inhibition of PRKAA2.
PRKAA2, sequence (P54646 whole entry, species assumed): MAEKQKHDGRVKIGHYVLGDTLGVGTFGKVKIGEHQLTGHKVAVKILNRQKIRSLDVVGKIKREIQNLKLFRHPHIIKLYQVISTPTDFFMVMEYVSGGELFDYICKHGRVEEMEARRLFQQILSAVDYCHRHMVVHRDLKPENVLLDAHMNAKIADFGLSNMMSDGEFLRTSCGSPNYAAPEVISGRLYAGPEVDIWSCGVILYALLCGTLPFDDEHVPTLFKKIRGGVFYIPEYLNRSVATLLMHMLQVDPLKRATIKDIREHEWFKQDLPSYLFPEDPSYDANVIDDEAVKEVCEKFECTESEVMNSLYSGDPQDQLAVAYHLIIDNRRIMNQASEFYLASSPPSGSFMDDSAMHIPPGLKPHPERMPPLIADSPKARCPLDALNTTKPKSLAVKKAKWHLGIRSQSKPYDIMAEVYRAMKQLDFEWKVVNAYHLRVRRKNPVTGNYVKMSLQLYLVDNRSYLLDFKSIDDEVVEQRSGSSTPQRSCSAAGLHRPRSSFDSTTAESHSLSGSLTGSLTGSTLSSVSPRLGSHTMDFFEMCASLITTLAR
PRKAA2, sequence (Q9Y478 whole entry partner, species assumed): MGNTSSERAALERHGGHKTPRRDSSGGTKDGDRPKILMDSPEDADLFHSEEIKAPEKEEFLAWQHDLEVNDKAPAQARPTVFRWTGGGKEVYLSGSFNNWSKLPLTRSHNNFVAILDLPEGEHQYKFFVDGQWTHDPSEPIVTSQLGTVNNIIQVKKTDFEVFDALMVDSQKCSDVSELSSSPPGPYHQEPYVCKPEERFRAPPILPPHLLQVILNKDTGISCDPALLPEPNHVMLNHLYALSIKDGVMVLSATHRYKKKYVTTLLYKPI
PRKAA2, sequence (P54619 whole entry partner, species assumed): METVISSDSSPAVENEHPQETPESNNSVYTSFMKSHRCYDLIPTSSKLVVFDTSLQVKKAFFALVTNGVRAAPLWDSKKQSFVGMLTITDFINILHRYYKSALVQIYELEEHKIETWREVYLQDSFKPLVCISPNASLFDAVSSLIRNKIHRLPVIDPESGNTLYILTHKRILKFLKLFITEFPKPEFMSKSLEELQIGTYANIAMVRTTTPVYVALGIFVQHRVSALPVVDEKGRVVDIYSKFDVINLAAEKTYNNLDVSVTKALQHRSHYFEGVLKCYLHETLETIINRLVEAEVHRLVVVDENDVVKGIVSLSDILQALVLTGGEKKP
In assay [5] the target is FGFR1 (Homo sapiens, UniProt P11362). As to the kind of experiment: Kinase selectivity screen FGFR1. The conditions noted are these: read-out: % inhibition of FGFR1.
FGFR1, sequence (P11362 22-822, species assumed): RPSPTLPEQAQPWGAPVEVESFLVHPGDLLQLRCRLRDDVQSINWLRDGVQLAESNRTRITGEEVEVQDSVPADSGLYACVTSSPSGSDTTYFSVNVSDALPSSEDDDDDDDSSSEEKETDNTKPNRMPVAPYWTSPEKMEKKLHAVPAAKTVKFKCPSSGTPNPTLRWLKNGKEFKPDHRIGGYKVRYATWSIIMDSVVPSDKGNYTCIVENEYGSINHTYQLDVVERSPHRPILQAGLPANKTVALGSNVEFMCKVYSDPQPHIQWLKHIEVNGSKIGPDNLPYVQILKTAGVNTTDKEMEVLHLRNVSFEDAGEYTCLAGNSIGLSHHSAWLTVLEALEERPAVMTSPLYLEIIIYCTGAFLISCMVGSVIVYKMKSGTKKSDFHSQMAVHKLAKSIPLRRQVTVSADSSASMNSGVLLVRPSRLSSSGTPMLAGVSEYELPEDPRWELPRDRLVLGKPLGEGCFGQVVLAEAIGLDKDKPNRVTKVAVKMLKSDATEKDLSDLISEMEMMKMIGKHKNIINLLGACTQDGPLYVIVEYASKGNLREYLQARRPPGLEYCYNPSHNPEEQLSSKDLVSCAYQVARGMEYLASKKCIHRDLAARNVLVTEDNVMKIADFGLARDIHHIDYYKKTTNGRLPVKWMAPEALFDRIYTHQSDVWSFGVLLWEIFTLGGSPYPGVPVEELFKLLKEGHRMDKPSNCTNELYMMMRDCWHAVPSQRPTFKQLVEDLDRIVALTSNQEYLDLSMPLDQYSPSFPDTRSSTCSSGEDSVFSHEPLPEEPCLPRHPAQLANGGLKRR
The target of assay [6] is T1, PIP4K2A (Homo sapiens, UniProt P48426).
T1 sequence (P48426 1-406): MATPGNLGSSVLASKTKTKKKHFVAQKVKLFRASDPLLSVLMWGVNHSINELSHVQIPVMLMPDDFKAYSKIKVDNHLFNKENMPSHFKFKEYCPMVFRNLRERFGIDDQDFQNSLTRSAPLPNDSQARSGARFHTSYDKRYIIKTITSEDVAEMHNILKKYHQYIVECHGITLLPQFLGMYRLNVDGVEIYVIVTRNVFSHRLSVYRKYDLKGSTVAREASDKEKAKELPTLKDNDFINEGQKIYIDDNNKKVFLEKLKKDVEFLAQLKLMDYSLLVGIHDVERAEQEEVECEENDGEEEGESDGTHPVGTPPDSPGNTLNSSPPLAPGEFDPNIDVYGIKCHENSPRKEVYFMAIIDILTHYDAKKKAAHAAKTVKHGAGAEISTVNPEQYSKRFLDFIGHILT
In words: Kinase selectivity screen PIP4K2A. The conditions noted are these: read-out: % inhibition of PIP4K2A.

In assay [7] the target is EGFR (Homo sapiens, UniProt P00533). In words: Kinase selectivity screen EGFR. The conditions noted are these: read-out: % inhibition of EGFR.
EGFR, sequence (P00533 25-1210): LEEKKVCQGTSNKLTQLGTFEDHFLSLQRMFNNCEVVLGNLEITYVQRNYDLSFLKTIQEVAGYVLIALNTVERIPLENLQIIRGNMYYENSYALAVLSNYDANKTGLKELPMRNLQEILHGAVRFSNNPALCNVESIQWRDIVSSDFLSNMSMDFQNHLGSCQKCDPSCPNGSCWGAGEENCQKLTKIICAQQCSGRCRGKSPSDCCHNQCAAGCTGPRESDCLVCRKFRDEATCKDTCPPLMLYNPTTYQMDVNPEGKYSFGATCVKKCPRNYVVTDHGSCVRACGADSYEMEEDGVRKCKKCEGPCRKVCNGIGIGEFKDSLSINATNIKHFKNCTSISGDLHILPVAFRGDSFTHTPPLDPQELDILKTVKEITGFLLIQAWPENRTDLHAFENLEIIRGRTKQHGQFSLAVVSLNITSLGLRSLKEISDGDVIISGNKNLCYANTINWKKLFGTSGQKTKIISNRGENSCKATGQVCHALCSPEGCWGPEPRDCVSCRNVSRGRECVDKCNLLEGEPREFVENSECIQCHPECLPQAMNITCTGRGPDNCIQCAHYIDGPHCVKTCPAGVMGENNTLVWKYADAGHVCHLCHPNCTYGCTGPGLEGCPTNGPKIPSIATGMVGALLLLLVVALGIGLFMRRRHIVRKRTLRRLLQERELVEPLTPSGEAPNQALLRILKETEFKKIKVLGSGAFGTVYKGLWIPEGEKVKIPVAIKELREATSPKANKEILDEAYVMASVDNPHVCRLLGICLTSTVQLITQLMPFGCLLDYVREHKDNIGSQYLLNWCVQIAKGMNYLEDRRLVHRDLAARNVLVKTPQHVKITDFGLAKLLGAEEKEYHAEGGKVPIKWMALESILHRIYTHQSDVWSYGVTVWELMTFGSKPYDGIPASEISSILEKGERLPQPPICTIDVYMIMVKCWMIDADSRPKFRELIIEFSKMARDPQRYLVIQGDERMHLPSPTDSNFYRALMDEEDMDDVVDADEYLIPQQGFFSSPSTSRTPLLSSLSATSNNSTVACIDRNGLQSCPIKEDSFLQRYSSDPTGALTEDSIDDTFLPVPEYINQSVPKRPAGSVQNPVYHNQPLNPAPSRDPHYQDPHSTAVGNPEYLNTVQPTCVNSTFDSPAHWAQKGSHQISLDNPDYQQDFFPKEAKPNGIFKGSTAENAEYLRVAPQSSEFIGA
Assay [8] deals with RPS6KA5 (Homo sapiens, UniProt O75582). As to the kind of experiment: Kinase selectivity screen RPS6KA5. The conditions noted are these: read-out: % inhibition of RPS6KA5.
In assay [9] the target is T2, DMPK (Homo sapiens, UniProt Q09013).
T2 sequence (Q09013 1-629): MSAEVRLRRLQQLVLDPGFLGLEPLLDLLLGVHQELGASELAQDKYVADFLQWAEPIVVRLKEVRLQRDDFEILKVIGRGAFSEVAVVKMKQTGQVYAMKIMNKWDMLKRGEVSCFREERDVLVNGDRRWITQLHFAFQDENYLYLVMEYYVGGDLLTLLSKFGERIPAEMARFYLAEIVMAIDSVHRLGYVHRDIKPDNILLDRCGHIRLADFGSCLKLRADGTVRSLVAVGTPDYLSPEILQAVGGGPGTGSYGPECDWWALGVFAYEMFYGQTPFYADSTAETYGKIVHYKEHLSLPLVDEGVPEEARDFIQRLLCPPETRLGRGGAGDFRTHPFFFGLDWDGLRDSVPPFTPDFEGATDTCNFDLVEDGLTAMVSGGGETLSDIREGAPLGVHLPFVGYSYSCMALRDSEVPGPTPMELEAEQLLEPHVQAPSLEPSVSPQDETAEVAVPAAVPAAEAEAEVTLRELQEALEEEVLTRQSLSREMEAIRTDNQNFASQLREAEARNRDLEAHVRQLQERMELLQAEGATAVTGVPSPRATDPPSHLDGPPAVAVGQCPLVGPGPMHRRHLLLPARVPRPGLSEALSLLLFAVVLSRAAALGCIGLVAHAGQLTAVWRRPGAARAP
In words: Kinase selectivity screen DMPK. The conditions noted are these: read-out: % inhibition of DMPK.

Assay [10] deals with INSR (Homo sapiens, UniProt P06213). In words: Kinase selectivity screen INSR. The conditions noted are these: read-out: % inhibition of INSR.
INSR, sequence (P06213 28-1382, species assumed): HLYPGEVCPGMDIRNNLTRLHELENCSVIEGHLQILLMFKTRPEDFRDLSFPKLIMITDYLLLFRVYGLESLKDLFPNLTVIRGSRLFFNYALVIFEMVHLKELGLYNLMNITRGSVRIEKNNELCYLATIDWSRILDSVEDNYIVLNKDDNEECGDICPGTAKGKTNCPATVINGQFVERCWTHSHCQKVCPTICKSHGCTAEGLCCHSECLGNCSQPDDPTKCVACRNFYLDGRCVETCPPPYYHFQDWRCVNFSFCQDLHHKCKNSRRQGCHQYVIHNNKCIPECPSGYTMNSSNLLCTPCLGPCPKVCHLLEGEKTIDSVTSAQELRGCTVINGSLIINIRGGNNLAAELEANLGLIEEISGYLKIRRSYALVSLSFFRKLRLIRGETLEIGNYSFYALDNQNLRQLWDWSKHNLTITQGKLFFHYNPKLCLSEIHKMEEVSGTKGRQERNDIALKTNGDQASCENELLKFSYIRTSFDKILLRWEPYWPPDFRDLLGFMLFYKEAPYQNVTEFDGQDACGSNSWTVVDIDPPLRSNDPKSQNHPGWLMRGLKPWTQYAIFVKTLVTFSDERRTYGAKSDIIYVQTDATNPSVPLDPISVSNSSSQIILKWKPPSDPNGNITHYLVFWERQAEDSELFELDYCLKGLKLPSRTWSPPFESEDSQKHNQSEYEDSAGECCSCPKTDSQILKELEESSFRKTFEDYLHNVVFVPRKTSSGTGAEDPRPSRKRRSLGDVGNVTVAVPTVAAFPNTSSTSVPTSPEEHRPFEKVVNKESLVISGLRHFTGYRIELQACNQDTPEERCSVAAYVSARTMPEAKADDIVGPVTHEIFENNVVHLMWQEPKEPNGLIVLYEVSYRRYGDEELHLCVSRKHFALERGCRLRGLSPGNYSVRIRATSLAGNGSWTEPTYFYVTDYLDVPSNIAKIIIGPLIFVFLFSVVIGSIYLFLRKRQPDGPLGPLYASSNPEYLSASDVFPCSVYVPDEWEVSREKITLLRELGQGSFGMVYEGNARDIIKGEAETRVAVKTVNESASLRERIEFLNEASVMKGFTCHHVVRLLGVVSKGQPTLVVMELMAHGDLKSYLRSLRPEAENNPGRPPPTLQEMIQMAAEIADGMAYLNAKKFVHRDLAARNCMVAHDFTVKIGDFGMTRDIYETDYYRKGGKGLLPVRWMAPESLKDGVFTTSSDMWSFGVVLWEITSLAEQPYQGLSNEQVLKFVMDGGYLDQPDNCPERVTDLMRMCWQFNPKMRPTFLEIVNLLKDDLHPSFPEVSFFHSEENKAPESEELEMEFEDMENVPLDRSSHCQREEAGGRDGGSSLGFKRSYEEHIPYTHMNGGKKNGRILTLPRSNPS
Assay [11] has as its target YES1 (Homo sapiens, UniProt P07947). In words: Kinase selectivity screen YES1. The conditions noted are these: read-out: % inhibition of YES1.

YES1, sequence (P07947 whole entry, species assumed): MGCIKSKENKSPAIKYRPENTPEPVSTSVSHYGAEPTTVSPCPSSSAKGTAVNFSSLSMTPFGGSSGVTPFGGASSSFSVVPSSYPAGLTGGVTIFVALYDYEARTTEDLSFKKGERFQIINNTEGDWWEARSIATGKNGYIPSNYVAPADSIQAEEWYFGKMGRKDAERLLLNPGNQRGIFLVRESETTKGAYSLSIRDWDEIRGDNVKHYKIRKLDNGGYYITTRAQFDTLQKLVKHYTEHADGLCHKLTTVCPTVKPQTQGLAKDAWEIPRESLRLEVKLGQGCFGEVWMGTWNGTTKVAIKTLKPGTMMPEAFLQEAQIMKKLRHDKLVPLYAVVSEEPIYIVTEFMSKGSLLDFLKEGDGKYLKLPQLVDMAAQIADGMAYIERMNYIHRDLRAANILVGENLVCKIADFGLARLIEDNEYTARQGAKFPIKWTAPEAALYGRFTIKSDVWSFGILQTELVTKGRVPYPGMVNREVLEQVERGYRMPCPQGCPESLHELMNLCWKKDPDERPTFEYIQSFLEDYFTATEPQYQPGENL

With `CN(C)CCCNC(=O)c1nc2c(N3CCc4cc(F)ccc43)ncnc2s1` [Example 64, N-[3-(dimethylamino)propyl]-7-(5-fluoroindolin-1-yl)thiazolo[5,4-d]pyrimidine-2-carboxamide], the inhibition (as a rule, the change of the read-out against control, counted positive when it falls) at 1 µM was 0% in [1]; 0% in assay [2]; 0% in [3]; 45% in assay [4]; 2% in assay [5]; 0% in assay [6]. The inhibition at 1 µM came to 5% in assay [7]; 24% in assay [8]; 0% in [9]; 0% in [10]; 4% in assay [11].
`CC(C)Oc1cc(F)ccc1Nc1ncnc2sc(C(=O)NCC3CCNCC3)nc12` [Example 10, 7-(4-fluoro-2-isopropoxy-anilino)-N-(4-piperidylmethyl)thiazolo[5,4-d]pyrimidine-2-carboxamide]: the inhibition at 1 µM worked out at 5% in assay [1]; 0% in assay [2]; 0% in assay [3]; 1% in assay [4]; 1% in assay [5]; 12% in assay [6]. Also, the inhibition at 1 µM in assay [7] is 0%; in assay [8], 0%; in assay [9] it was 0%; in [10], 8%; in [11], 4%.
`O=C(NCC1CCNCC1)c1nc2c(N3CCc4cc(F)ccc43)ncnc2s1` [Example 58, 7-(5-fluoroindolin-1-yl)-N-(4-piperidylmethyl)thiazolo[5,4-d]pyrimidine-2-carboxamide]: the inhibition at 1 µM stood at 1% in assay [1]; 0% in assay [2]; 0% in [3]; 1% in assay [4]; 0% in [5]; 7% in assay [6]. The inhibition at 1 µM in assay [7] was 0%; in assay [8], 0%; in assay [9], 0%; in assay [10], 20%; in [11], 14%.

Values taken from patent US10669284B2, “Fused thiazolopyrimidine derivatives as MNKS inhibitors” (LIFEARC, priority 2015, dated 2020).
